The values that follow come from patent publication US20080076129A1, “Method of Detecting an Increased Susceptibility to Breast Cancer” (priority 2000, published 2008).

Positions count from the first letter of the chain named.

The target of series [1] is T1, COMT (Homo sapiens, UniProt P21964).
T1 construct: made in house; host or cells: Escherichia coli DH5αF′Iq
T1 sequence (P21964 51-271): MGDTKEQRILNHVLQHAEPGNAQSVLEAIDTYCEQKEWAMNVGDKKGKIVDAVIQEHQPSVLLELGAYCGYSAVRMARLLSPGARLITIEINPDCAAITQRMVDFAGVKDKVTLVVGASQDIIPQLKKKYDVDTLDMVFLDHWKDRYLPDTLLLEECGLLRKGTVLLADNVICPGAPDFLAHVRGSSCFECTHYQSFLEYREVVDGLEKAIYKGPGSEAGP
As to the kind of experiment: Assay of COMT activity, purified recombinant His-COMT, methylation of catechol estrogens. It is filed as biochemical. The settings on record: for Km: formation of the named product from its catechol estrogen, recombinant His-COMT, 200 μM SAM, 10 min at 37° C.; for kcat: formation of the named product, in min-1 (unit assumed); for pattern of rates of methylation: substrate 2-100 μM; for formation of product by COMT: methylation of 4-OHE2 and 4-OHE1; for Hill Coefficient: sigmoidal fit. Here is the method:
Assay of COMT Activity. Purified recombinant His-COMT (300 pmol) was reconstituted 0.5 ml of 100 mM KPO4, pH 7.4, containing 5 mM MgCl2, 10 mM β-mercaptoethanol, and 200 μM SAM. Reactions were initiated by adding varying concentrations of each individual catechol estrogen (2, 3, 6, 9, 12, 15, 20, 40, 60, 80, and 100 μM). Blanks contained all compounds except SAM. Reactions proceeded for 10 min at 37° C. with gentle shaking and then were terminated by addition of 2 ml CH2Cl2. To determine COMT activity in breast cancer cells, ZR-75 and MCF-7 cells were harvested at confluency and homogenized in 100 mM KPO4, pH 7.4, 5 mM MgCl2, 10 mM β-mercaptoethanol. Following ultracentrifugation of the cell homogenate (110,000 g, 30 min, 4° C.), the supernatant cytosol was divided into aliquots for ICELISA, protein determination (BCA assay; Pierce, Rockford, Ill.), and COMT assay. The latter was carried out in the presence of 200 μM SAM and 100 μM catechol estrogen for 20 min at 37° C. and then terminated by addition of CH2Cl2. The concentration of endogenous catechol and methoxy estrogens was below the limit of detection by gas chromatography/mass spectrometry.
Extraction and Gas Chromatography/Mass Spectrometry Analysis of Catechol Estrogens. A deuterated internal standard (100 μl of 8 mg/liter E2-d4 in methanol) was added and all estrogens extracted into the CH2Cl2 by vortex mixing for 30 s. 1.5 ml of the CH2Cl2 fraction was evaporated to dryness under air and volatile TMS derivatives prepared by heating the residue with 100 μl of 50% NO-bis(trimethylsilyl)trifluoroacetamide/1% trimethyl chlorosilane in acetonitrile at 56° C. for 30 min. The TMS derivatives of the estrogen metabolites were separated by gas chromatography (H-P 5890, Hewlett-Packard, Wilmington, Del.) on a 5% phenyl methyl silicone stationary phase fused silica capillary column (30 m×0.2 mm×0.5 μm film, HP5; Hewlett-Packard). Helium carrier gas was used at a flow of 1 ml/min. The injector was operated at 250° C., with 2 μl injected in the splitless mode, with a purge (60 ml/min helium) time of 0.6 min. The oven temperature was held at 180° C. for 0.5 min, then raised at 6° C./min to 250° C. where it was held for 17 min, then raised to 300° C. at 8° C./min to give a total run time of 35.42 min. This program permitted adequate separation of a wide range of estrogen metabolites. Retention times (in min) for the TMS derivatives were E1 20.13, E2 and E2-d4 21.89, 4-MeOE1 23.52, 2-MeO-3-MeOE1 (underivatized) 23.75, 2-OH-3-MeOE1 24.87, 2-MeOE1 25.2, 4-MeOE2 25.78, 2-OHE1 and 2-MeO-3-MeOE2 26.19, 2-OH-3-MeOE2 26.9, 2-MeOE2 27.18, 4-OHE1 27.27, 6α-OHE2 27.29, 2-OHE2 27.44, 4-OHE2 28.06, E3 28.38. The EI mass spectrometer (H-P 5970) was operated in the selected ion monitoring mode from 18 to 30 min. Ions monitored were TMS-E1 342, 257, 343; TMS2-E2-d4 420, 421, 287; TMS2-E2 416, 417, 285; TMS-4-MeOE1, TMS-2-OH-3-MeOE1, TMS-2-MeOE1 and TMS-3-MeO-4-OHE1 372, 373, 342; 2-MeO-3-MeOE1 314, 315, 229; TMS2-4-MeOE2, TMS2-2-OH-3-MeOE2, TMS2-2-MeOE2 and TMS2-3-MeO-4-OHE2 446, 447, 315; TMS2-2-OHE1 430, 431, 432; TMS-2-MeO-3-MeOE2 388, 389, 257; TMS2-4-OHE1 430, 431, 345; TMS2-6α-OHE2 414, 283, 309; TMS3-2-OHE2 and TMS3-4-OHE2 504, 505, 373; TMS3-E3 504, 505, 311 (FIG. 7). The instrument was calibrated by simultaneous preparation of an 11-point calibration over the range 0-22 nmol/tube of each compound. Sensitivity was determined to be between 0.02 and 0.04 nmol/tube (400-800 fmol on column) for the various compounds. […] Absolute extraction efficiency for E2, 2-OH-E2 and 4-OH-E2 at 3.5 nmol/tube was 119, 96, and 107% assessed by comparison to injections of spiked solvent samples onto the gas chromatograph. Internal standard added prior to extraction compensated for deviation from 100% recovery for all investigated compounds.
Statistical Analysis. […]

The subject of series [2] is renal DNA. The note with it: in vivo; cited from earlier work.
The test system of series [3] is Syrian hamster. The settings on record: in vivo; cited from earlier work.
Series [4] has as its system CYP1B1. In words: Assay of CYP1B1 E2 hydroxylation activity. The settings on record: for 2-OH-Estradiol kcat: E2 2-hydroxylation; for 4-OH-Estradiol kcat: E2 4-hydroxylation; for 16a-OH-Esrradiol kcat: E2 16α-hydroxylation. The format is biochemical, human. How it is done:
Assay of CYP1B1 E2 Hydroxylation Activity. Purified CYP1B1 (200 pmol) was reconstituted with a 2-fold molar amount of recombinant rat NADPH-P450 reductase (400 pmol), purified as previously described, and 60 μg of L-α-dilauroyl-sn-glycero-3-phosphocholine in the presence of sodium cholate (0.005%, w/v) in 0.4 ml of 100 mM potassium phosphate buffer, pH 7.4, containing varying concentrations of E2 (2, 3, 6, 9, 12, 15, 20, 40, 60, 80, and 100 μM) and 1 mM ascorbate. An NADPH-generating system consisting of 5 mM glucose 6-phosphate and 0.5 U of glucose-6-phosphate dehydrogenase/ml was added and reactions initiated by adding NADP+ to a final concentration of 0.5 mM. Reactions proceeded for 10 min at 37° C. with gentle shaking and then were terminated by addition of 2 ml CH2Cl2.
Extraction and Gas Chromatography/Mass Spectrometry Analysis of E2 and Metabolites. A deuterated internal standard (100 μl of 8 mg/liter E2-2, 4, 16, 16-d4 in methanol; CDN Isotopes, Pointe-Claire, Quebec) was added and all steroids extracted into CH2Cl2 by vortex mixing for 30 s. 1.5 ml of the CH2Cl2 fraction was evaporated to dryness under air and volatile TMS derivatives prepared by heating the residue with 100 μl of 50% NO-bis(trimethylsilyl)trifluoroacetamide/1% trimethyl chlorosilane in acetonitrile at 56° C. for 30 min. The TMS derivatives of E2 and its metabolites were separated by gas chromatography (H-P 5890, Hewlett-Packard, Wilmington, Del.) on a 5% phenyl methyl silicone stationary phase fused silica capillary column (30 m×0.2 mm×0.5 μm film, HP5; Hewlett-Packard). Helium carrier gas was used at a flow of 1 ml/min. The injector was operated at 250° C., with 2 μl injected in the splitless mode, with a purge (60 ml/min helium) time of 0.6 min. The oven temperature was held at 189° C. for 0.5 min, then raised at 6° C./min to 250° C. where it was held for 17 min, then raised to 300° C. at 8° C./min to give a total run time of 35.42 min. […] The EI mass spectrometer (H-P 5970) was operated in the selected ion monitoring mode from 18 to 34 min. Ions monitored were TMS2-E2-d4 420, 288, 330; TMS2-E2 416, 285, 326; TMS3-2-OH-E2 504, 373; TMS3-4-OH-E2 504, 373, 325; TMS3-16α-OH-E2 345, 311, 504. The instrument was calibrated by simultaneous preparation of an 11-point calibration over the range […]/tube of each compound. […] Internal standard added prior to extraction compensated for deviation from 100% recovery.
Statistical Analysis. Kinetic parameters (Km and kcat) were determined by nonlinear regression analysis using the computer program GraphPad PRISM (San Diego, Calif.).

One may read the Km as the substrate concentration at which the rate is half of its maximum. With `COc1cc2c(cc1O)CC[C@@H]1[C@@H]2CC[C@]2(C)C(=O)CC[C@@H]12` [2-MeOE1], in series [1], the Km is 74 ± 8 µM and the kcat is reported as 3.3 ± 0.2.
Take `COc1cc2c(cc1O)CC[C@@H]1[C@@H]2CC[C@]2(C)[C@@H](O)CC[C@@H]12` [2-MeOE2]: in series [1], the Km amounted to 108 ± 9 µM and the kcat was determined as 6.8 ± 0.4.
For `COc1cc2c(cc1O)[C@H]1CC[C@]3(C)C(=O)CC[C@H]3[C@@H]1CC2` [2-OH-3-MeOE1] the same measures were 73 ± 16 µM and 2.8 ± 0.4.
Turning to `COc1cc2c(cc1O)[C@H]1CC[C@]3(C)[C@@H](O)CC[C@H]3[C@@H]1CC2` [2-OH-3-MeOE2], in series [1], the Km came to 51 ± 5 µM and the kcat is recorded as 1.5 ± 0.1.
For `C[C@]12CC[C@@H]3c4cc(O)c(O)cc4CC[C@H]3[C@@H]1CCC2=O` [2-OHE1], the “pattern of rates of methylation” value in series [1] is given as “typical hyperbolic patterns”.
Regarding `COc1ccc2c(c1O)CC[C@@H]1[C@@H]2CC[C@]2(C)C(=O)CC[C@@H]12` [3-MeO-4-OHE1], in series [1], the “formation of product by COMT” value is given as “not observed”.
On the same count and under the same terms, for `COc1ccc2c(c1O)CC[C@@H]1[C@@H]2CC[C@]2(C)[C@@H](O)CC[C@@H]12` [3-MeO-4-OHE2] the value was “not observed”.
As to `COc1c(O)ccc2c1CC[C@@H]1[C@@H]2CC[C@]2(C)C(=O)CC[C@@H]12` [4-MeOE1], in series [1], the Km amounted to 53 ± 6 µM, the kcat stood at 6.7 ± 0.4 and the “Hill Coefficient” value is on record as 2.0 ± 0.4.
For `COc1c(O)ccc2c1CC[C@@H]1[C@@H]2CC[C@]2(C)[C@@H](O)CC[C@@H]12` [4-MeOE2], in that order: 24 ± 3 µM, 3.4 ± 0.2 and 1.6 ± 0.2.
Consider `C[C@]12CC[C@@H]3c4ccc(O)c(O)c4CC[C@H]3[C@@H]1CCC2=O` [4-OHE1], for which the “pattern of rates of methylation” value in series [1] is “sigmoid curve pattern”. The “levels of the oxidized base 8-hydroxy-deoxyguanosine” value in series [2] is listed as “significantly increased”. For the same molecule, the “induction of renal cancer” value in series [3] is reported as “induced renal cancer”.

B1: Variant 4: recombinant CYP1B1 with 48Arg, 119Ala, 432Val, 453Ser (protein, UniProt Q16678 1-543, looked up, variant N453S)
Cytochrome P450 1B1: MGTSLSPNDPWPLNPLSIQQTTLLLLLSVLATVHVGQRLLRQRRRQLRSAPPGPFAWPLIGNAAAVGQAAHLSFARLARRYGDVFQIRLGSCPIVVLNGERAIHQALVQQGSAFADRPAFASFRVVSGGRSMAFGHYSEHWKVQRRAAHSMMRNFFTRQPRSRQVLEGHVLSEARELVALLVRGSADGAFLDPRPLTVVAVANVMSAVCFGCRYSHDDPEFRELLSHNEEFGRTVGAGSLVDVMPWLQYFPNPVRTVFREFEQLNRNFSNFILDKFLRHCESLRPGAAPRDMMDAFILSAEKKAAGDSHGGGARLDLENVPATITDIFGASQDTLSTALQWLLLLFTRYPDVQTRVQAELDQVVGRDRLPCMGDQPNLPYVLAFLYEAMRFSSFVPVTIPHATTANTSVLGYHIPKDTVVFVNQWSVNHDPLKWPNPENFDPARFLDKDGLISKDLTSRVMIFSVGKRRCIGEELSKMQLFLFISILAHQCDFRANPNEPAKMNFSYGLTIKPKSFKVNVTLRESMELLDSAVQNLQAKETCQ
On to B1, for which, in series [4], the 2-OH-Estradiol kcat turned out to be 0.0467 ± 0.0033 s⁻¹, the 4-OH-Estradiol kcat was found to be 0.075 ± 0.005 s⁻¹ and the 16a-OH-Esrradiol kcat worked out at 0.0065 ± 0.00033 s⁻¹.

B2: Variant 1: recombinant CYP1B1 with 48Gly, 119Ala, 432Val, 453Asn (protein, UniProt Q16678 1-543, looked up, variant R48G)
Cytochrome P450 1B1: B1 Cytochrome P450 1B1 with R48G, S453N
Turning to B2, in series [4], the 2-OH-Estradiol kcat was found to be 0.0533 ± 0.0033 s⁻¹, the 4-OH-Estradiol kcat turned out to be 0.1 ± 0.0033 s⁻¹ and the 16a-OH-Esrradiol kcat stood at 0.00933 ± 0.00067 s⁻¹.

B3: Variant 2: recombinant CYP1B1 with 48Arg, 119Ser, 432Val, 453Asn (protein, UniProt Q16678 1-543, looked up, variant A119S)
Cytochrome P450 1B1: B1 Cytochrome P450 1B1 with A119S, S453N
Consider B3, for which, in series [4], the 2-OH-Estradiol kcat was 0.0383 ± 0.0017 s⁻¹, the 4-OH-Estradiol kcat amounted to 0.0633 ± 0.0017 s⁻¹ and the 16a-OH-Esrradiol kcat is 0.00567 ± 0.00033 s⁻¹.
